# Assay results from patent US7339042B2, “Gene delivery to tumors” (University of Florida Research Foundation, Inc., priority 2003, dated 2008).
# Experiments:
# [1] = tested on: endothelial cells and smooth muscle cells of rat cerebral arteries; experiment: Uptake of fluorescent peptides by pressure-mounted rat cerebral arteries; type: cell-based; details: extraluminal addition
# A172 cells = experiment: Fluorescein peptide uptake by A172 cells, fluorescence microscopy; type: cell-based, human; details: 30 uM peptide, 1 hr, 37° C., serum containing media
# Method: For fluorescent microscopy studies cells were plated on 2 chamber cover slips at a density of 1×10^4 cells/chamber. Cells were incubated with […] peptide for 30 minutes in completed media, washed with PBS 3× and imaged using a Nikon Axiophot inverted fluorescent microscope. Images were taken using a Spot CCD camera.
# Synthetic peptides derived from HIV Tat (Tat) and the Drosophila antennaepedia homeodomain (ANT) were tested for cell uptake by A172 cells (human glioblastomas). The peptides were labeled at the N-terminus with fluorescein. Cells were incubated with 30 uM peptide at 37° C. in serum containing media. Fluorescent micrographs were taken after 1 hr incubation at 37° C. […] The size of the peptide was increased by added an Mdm-2 binding domain derived from P14ARF. This domain was added to the C-terminus of the Tat and ANT peptides. The P14ARF domain was also placed at the N-terminus followed by the Tat peptide. All the peptides were labeled at the N-terminus with fluorescein and cell incubations similar to the Tat and ANT peptides were tested for cellular uptake. […] Both the bright field and fluorescent micrographs show altered cell morphology.
# rat cerebral arteries = experiment: Vasodilation and vasoconstriction response of rat cerebral arteries before and after peptide; type: cell-based; details: after vs before intraluminal peptide
# Method: The blood vessels were put in culture described above and perfused with buffer of the same composition as cerebrospinal fluid. Vessel diameter was measured before and after administration of each reagent. 3 μM of each peptide was perfused through for 10 minutes followed by a 10 minute wash through. Vasoconstriction and vasodilation were determined for each vessel before peptide was applied. Perfusion was continued until the vessels relaxed to their original diamter (approximately 30 minutes). The vasoconstriction and vasodilation reponse was remeasured after the 10 minute wash through. The 60 mM KCl and 16 mM KCl conditions are […], respectively. Histamine and Bradykinin are endothelial cell vasodilators.
# In some experiments, the arterial segments were denuded of endothelium by passing an air bubble through the lumen, thus exposing the smooth muscle cells to luminally administered peptides. Constriction to pressure and 60 mM KCl and dilation of arteries with myogenic tone to 16 mM KCl were used as benchmarks of functional arteries. Peptide containing PCSF was perfused intraluminally at an inlet pressure of 70 mmHg with the outlet open, for 20 min and then perfused with normal PCSF. This procedure ensures a 20 min of exposure of the arteries to the peptide.
# Effect of peptide on endothelial and smooth muscle function was evaluated by histamine (0.3 and 1 μM) and bradykinin (0.5 μM) (endothelium-dependent vasodilators) and 16 and 60 mM KCl (results in dilation and constriction of arteries by hyperpolarizing and depolarizing smooth muscle, respectively). These drug solutions were added to the superfusate and applied to the arteries extraluminally for 10 to 15 min before and after intraluminal perfusion with peptides. Effects of these agents were expressed as percent change in myogenic tone (decrease for dilators and increase for constrictors). Experiments were concluded by exposing the arteries to calcium free PCSF to obtain the passive diameter. Cell viability was determined by adding H3334 (Hoechst viability stain, final concentration 1 μM) and propidium iodide (final concentration 1 μM) to the arteriograph after the peptide incubation. Fluorescent micrographs were taken of the vessels after incubation with peptides and following addition of the vital stains using Till Photonics imaging system (Martinsried, Germany).
# [2] = Fusion peptide cell killing, propidium iodide/FACS viability, RG2 cells; type: cell-based, rat; details: peptides in complete media for 1 hr, Table 2
# Method: (§1) Other experiments were performed using two glioma cell lines, i.e., T98G and RG2. 1×10^6 cells per well were incubated in 6-well plates with peptides in complete media for 1 hr. Cells were removed from the plate using a cell stripper and the percentage of viable cells was determined by staining with propidium iodide and analyzing by fluorescence activated cell sorting (FACS).
# (§2) There are 4 conserved amino acid differences between the rat and human CDKI sequence. Both sequences were attached to Tat and tested for cell killing activity in the rat glioma RG2 cells. Also the effect of orientation of the Tat and CDKI domains were tested. RG2 cells were plated on 6 well plates at approximately 70% confluency. Each of the peptides was added to the wells with increasing concentration. After 1 hr, cells were removed from the plates, washed 2× with PBS, stained with propidium iodide and analyzed by FACS for viable cells.
# (§3) Cell viability studies were performed by plating the cells under the same conditions as the uptake studies. Cells were incubated with fluorescent peptides for 1 hr at 37° C. The cells were removed from the plate using cell striper. They were labeled with propidium iodide and fluorescein-AM. Percent PI positive cells were determined by FACS.
# (§4) The cytotoxicity of the chimeric peptides was characterized using a cell viability assay. Peptides were added to cells at a fixed concentration. After a 30-minute incubation, cells were removed from the plate, stained with propidium iodide and the % positive cells were determined by FACS (fluorescent activated cell scanning). The test conditions were Tat, ANT, Tat-P14ARF, ANT-P14ARF and P14ARF. T98G cells were tested along with RG2 cells and A172 cells.
# RG2 cells [3] = experiment: as above; type: cell-based, rat; details: peptides in complete media for 1 hr, Table 2
# Method: as §1, §2, §3, §4
# RG2 cells [4] = experiment: Kinetic uptake studies of fluorescent peptides; type: cell-based, rat
# Method: A172 cells, T98G cells and RG2 cells were purchased from ATCC. Cells were cultured under standard conditions. For cell uptake studies, each cell type was plated in 6 well plates at 5×10^5 cells per well 24 hours before the experiment. Increasing concentration of fluorescent peptides from 0.5 μM to 10 μM was prepared in complete medium. Cells were incubated with each concentration for 5, 10, 20 and 30 minutes at 37° C. followed by removal and washing of cells with 4° C. PBS 3×. Cells were solubilized in 0.2 ml 1% TX-100, PBS, pH 7.4. Fluorescence was measured using a fluorescent plate reader. Concentrations were determined by standard curve and normalized to μg of cellular protein.
# A172, T98G and RG2 cells were plated in 6 well plates and incubated with 1, 2.5, 5 and 10 uM fluorescein labeled peptides for 5, 15, 30 and 60 minutes. Cells were washed 3× with PBS, removed from the plates with trypsin, centrifuged for 2 minutes at 2K rpm in a desk top centrifuge, supernatants discarded and the cell pellets were solubilized in 1% TX-100, PBS, pH 7.4. Fluorescence was measured in a Perkin Elmer fluorimeter using ˜ex=480 nm and ˜em=520 nm with a 510 nm cut off filter. Amount of cell-associated protein was determined from the standard curve.
# This peptide was further characterized with regard to dose response. […]
compound,measurement,setting,value
C[C@H](N)C(=O)NCC(=O)NCC(=O)NCC(=O)N[C@@H](Cc1ccc(O)cc1)C(=O)NCC(=O)N[C@@H](CCCNC(=N)N)C(=O)N[C@@H](CCCCN)C(=O)N[C@@H](CCCCN)C(=O)N[C@@H](CCCNC(=N)N)C(=O)N[C@@H](CCCNC(=N)N)C(=O)N[C@@H](CCC(N)=O)C(=O)N[C@@H](CCCNC(=N)N)C(=O)N[C@@H](CCCNC(=N)N)C(=O)N[C@@H](CCCNC(=N)N)C(=O)O [Tat],labeling of smooth muscle cells,[1],able to label the smooth muscle cells
same,staining pattern (cell uptake),A172 cells,intracellular punctate
same,endothelium-dependent dilation to histamine and bradykinin,rat cerebral arteries,responsive to all stimuli
same,smooth muscle response to 60 and 16 mM KCl,rat cerebral arteries,responsive to all stimuli
same,viability,[2],94%
same,% Viable,RG2 cells [3],ineffective
same,uptake rate,RG2 cells [4],more rapid uptake than TatP14ARF
